Data on 3 compounds can be found in patent US20170196878A1, “USE OF CBP/EP300 AND BET INHIBITORS FOR TREATMENT OF CANCER” (GENENTECH, INC., priority 2014, published 2017).

In one assay the test system is IRF4 mRNA expression. The assay is described as follows: IRF4 mRNA expression in LP-1 cells by q-RTPCR. As to conditions: 6 h, q-RTPCR normalized to GAPDH. It counts as cell-based. On the procedure: FIG. 8. CBP/EP300 and BET bromodomain inhibition have distinct transcriptional effects. […] Expression values for replicate compound treated samples were normalized to paired DMSO controls to obtain log2 fold change values. […] Cells were treated with compound for 6 h, and mRNA expression was assessed with q-RTPCR and normalized to GAPDH. Values represent the mean of n=3, ±SEM. […] LP-1 cells were treated with a titration of CPI203 for 6 h, and IRF4 expression was determined by q-RTPCR and normalized to GAPDH. Values represent the mean of n=2, ±SEM.

The target in assay [1] is T1, ZsGreen-bromodomain fusion protein (CBP) (Homo sapiens, UniProt Q92793).
T1 construct: expressed in transfected cells
T1 sequence (Q92793 1085-1192 limits assumed): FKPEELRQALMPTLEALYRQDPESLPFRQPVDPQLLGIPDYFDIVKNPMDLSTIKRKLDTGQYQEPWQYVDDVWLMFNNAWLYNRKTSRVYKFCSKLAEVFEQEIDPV
The assay is described as follows: Release of chromatin-bound ZsGreen-bromodomain fusion protein (CBP), high content imaging of nuclear foci. It counts as cell-based. Particulars: number of nuclear foci, read-out: Calculated EC50, release of chromatin-bound ZsGreen-CBP bromodomain fusion protein.
Text: (§1) Release of chromatin-bound ZsGreen-bromodomain fusion proteins in the presence of compound was monitored with high content imaging. Each curve represents the indicated compound and the indicated fusion protein (BRD4 or CBP). The number of nuclear foci increases with compound target engagement (values are mean of four fields per well of two technical replicates, +SEM).

Assay [2] has as its target ZsGreen-bromodomain fusion protein (BRD4) (Homo sapiens, UniProt O60885). The assay is described as follows: Release of chromatin-bound ZsGreen-bromodomain fusion protein (BRD4), high content imaging of nuclear foci. As to conditions: read-out: Calculated EC50, release of chromatin-bound ZsGreen-BRD4 bromodomain fusion protein, number of nuclear foci.
Text: as §1

Bounds are passed on as bounds.

Turning to `Cc1sc2c(c1C)C(c1ccc(Cl)cc1)=N[C@@H](CC(N)=O)c1nnc(C)n1-2` [CPI203], in the assay on IRF4 mRNA expression, the “IRF4 mRNA expression” value is recorded as “does not directly regulate”. Further, the EC50 in assay [1] is 1800 nM; in assay [2] it was 80 nM.
Turning to `COc1ccc(CCc2nc3cc(-c4c(C)noc4C)ccc3n2C[C@H](C)N2CCOCC2)cc1Cl` [SGC-CBP30], the “IRF4 mRNA expression” value in the assay with IRF4 mRNA expression is on record as “Dose-dependent inhibition”. Also, the concentration giving a half-maximal response (EC50) in assay [2] is 21500 nM.
`CCC(=O)N1CCOc2c(cc(-c3ccc(OC)c(OC)c3)cc2OC[C@H]2CCCN(C)C2)C1` [I-CBP112]: the 50% effective concentration (EC50) in assay [1] is 2600 nM; in assay [2], > 20000 nM.
